Data reported in PubChem BioAssay AID234 (DTP/NCI, 2004).
“And” between values parts separate entries of the source, which are not always exact repeats. Equal entries are not always repeated. Results filed as inconclusive are left out.

Test system: C3AKF1 mice, hamster liver cystadenocarcinoma s.c., tumor weight T/C
Test: NCI In Vivo Anticancer Drug Screen. Data for tumor model Cystadenocarcinoma, Liver (No. 1) (Hamster) (subcutaneous) in C3AKF1 (CHKRF1) mice
Details: endpoint: mean tumor weight, schedule: Q01DX010 (ip), higher = larger tumour
Procedure: The antitumor activity of compounds was measured in mice bearing transplantable tumors. Survival or tumor size were measured and the results are expressed as the measurement made in the treated group (T) divided by the measurement made in the vehicle treated control group (C). The tumor model used in this assay is Cystadenocarcinoma, Liver (No. 1) (Hamster) (subcutaneous) in C3AKF1 (CHKRF1) mice

[1] = dose: 45.0 mg/kg/injection, vehicle: carboxymethylcellulose (CMC)
[2] = dose: 125.0 mg/kg/injection, vehicle: saline
[3] = dose: 250.0 mg/kg/injection, vehicle: saline
[4] = dose: 500.0 mg/kg/injection, vehicle: saline

## O=C(COc1cc(Cl)c(Cl)cc1Cl)OCCOc1cc(Cl)c(Cl)cc1Cl
dose: 11.25 mg/kg/injection, vehicle: carboxymethylcellulose (CMC)
  T/C: 88 % of control
dose: 22.5 mg/kg/injection, vehicle: carboxymethylcellulose (CMC)
  T/C: 102 % of control
[1]
  T/C: 87 % of control

## Fc1ccc(CSc2ncnc3c2ncn3C2CCCCO2)cc1 (stereo not given)
[1]
  T/C: 102 % of control
dose: 90.0 mg/kg/injection, vehicle: carboxymethylcellulose (CMC)
  T/C: 111 % of control
dose: 360.0 mg/kg/injection, vehicle: carboxymethylcellulose (CMC)
  T/C: 57 % of control and 78 % of control
dose: 720.0 mg/kg/injection, vehicle: carboxymethylcellulose (CMC)
  T/C: 75 % of control

## CCCC(=O)NC1=C(N2CC2)C(=O)C(NC(=O)CCC)=C(N2CC2)C1=O
dose: 0.5 mg/kg/injection, vehicle: saline
  T/C: 69 % of control and 86 % of control
dose: 0.75 mg/kg/injection, vehicle: saline
  T/C: 47 % of control and 49 % of control
dose: 1.7 mg/kg/injection, vehicle: saline
  T/C: 32 % of control and 48 % of control
dose: 2.6 mg/kg/injection, vehicle: saline
  T/C: 14 % of control

## COC(=S)SCN(CSC(=S)OC)c1ccccc1Cl
[2]
  T/C: 99 % of control
[3]
  T/C: 84 % of control
[4]
  T/C: 111 % of control

## Cn1c(=O)c2[nH]c(CCCc3nc4c([nH]3)c(=O)n(C)c(=O)n4C)nc2n(C)c1=O
dose: 20.0 mg/kg/injection, vehicle: carboxymethylcellulose (CMC)
  T/C: 101 % of control
dose: 40.0 mg/kg/injection, vehicle: carboxymethylcellulose (CMC)
  T/C: 68 % of control

## CN(C)CCCN1c2ccccc2Sc2ccc(C(F)(F)F)cc21
dose: 12.0 mg/kg/injection, vehicle: saline
  T/C: 84 % of control

## O=C(c1ccc(C(=O)N2CC2)cc1)N1CC1
dose: 3.0 mg/kg/injection, vehicle: carboxymethylcellulose (CMC)
  T/C: 69 % of control
dose: 6.0 mg/kg/injection, vehicle: carboxymethylcellulose (CMC)
  T/C: 85 % of control
dose: 12.0 mg/kg/injection, vehicle: carboxymethylcellulose (CMC)
  T/C: 166 % of control
dose: 24.0 mg/kg/injection, vehicle: carboxymethylcellulose (CMC)
  T/C: 98 % of control

## NNc1nncc2ccccc12
dose: 37.5 mg/kg/injection, vehicle: carboxymethylcellulose (CMC)
  T/C: 111 % of control
dose: 75.0 mg/kg/injection, vehicle: carboxymethylcellulose (CMC)
  T/C: 94 % of control

## O=C(O)CCc1c[nH]c2ccc(N(CCCl)CCCl)cc12
dose: 1.2 mg/kg/injection, vehicle: carboxymethylcellulose (CMC)
  T/C: 109 % of control
dose: 2.5 mg/kg/injection, vehicle: carboxymethylcellulose (CMC)
  T/C: 97 % of control
dose: 5.0 mg/kg/injection, vehicle: carboxymethylcellulose (CMC)
  T/C: 77 % of control
dose: 10.0 mg/kg/injection, vehicle: carboxymethylcellulose (CMC)
  T/C: 69 % of control

## CCC(=O)NC1=C(N2CC2)C(=O)C(NC(=O)CC)=C(N2CC2)C1=O
dose: 0.6 mg/kg/injection, vehicle: saline
  T/C: 97 % of control
dose: 1.2 mg/kg/injection, vehicle: saline
  T/C: 76 % of control

## CCCCCCCCCC(C)(O)C#CC(C)(O)CCCCCCCCC (stereo not given)
dose: 12.5 mg/kg/injection, vehicle: carboxymethylcellulose (CMC)
  T/C: 86 % of control
dose: 25.0 mg/kg/injection, vehicle: carboxymethylcellulose (CMC)
  T/C: 74 % of control
dose: 50.0 mg/kg/injection, vehicle: carboxymethylcellulose (CMC)
  T/C: 96 % of control
dose: 100.0 mg/kg/injection, vehicle: carboxymethylcellulose (CMC)
  T/C: 64 % of control

## CCOC1=CCCCC1
dose: 62.0 mg/kg/injection, vehicle: carboxymethylcellulose (CMC)
  T/C: 94 % of control
dose: 125.0 mg/kg/injection, vehicle: carboxymethylcellulose (CMC)
  T/C: 106 % of control
[2]
  T/C: 48 % of control
[3]
  T/C: 95 % of control
[4]
  T/C: 99 % of control

## CCC[CH2][Sn]1([CH2]CCC)[O]C(=O)C[S]1
dose: 0.39 mg/kg/injection, vehicle: saline
  T/C: 113 % of control
dose: 0.78 mg/kg/injection, vehicle: saline
  T/C: 110 % of control
dose: 1.56 mg/kg/injection, vehicle: saline
  T/C: 66 % of control

## N#CCSc1nc(N)nc2nc[nH]c12
dose: 2.0 mg/kg/injection, vehicle: carboxymethylcellulose (CMC)
  T/C: 87 % of control
dose: 4.0 mg/kg/injection, vehicle: carboxymethylcellulose (CMC)
  T/C: 102 % of control
dose: 8.0 mg/kg/injection, vehicle: carboxymethylcellulose (CMC)
  T/C: 98 % of control
dose: 16.0 mg/kg/injection, vehicle: carboxymethylcellulose (CMC)
  T/C: 99 % of control
